Measured values as given in US20080292736A1, “Bioavailability enhancing activity of carum carvi extracts and fractions thereof” (COUNCIL OF SCIENTIFIC AND INDUSTRIAL RESEARCH, priority 2001, published 2008).

Conditions: rat, in vivo; for % Enhancement in bioavailability, Carum carvi (Cc) Extr.: 30 mg/kg; for % Enhancement in bioavailability, BE from Zingiber officinale: 35 mg/kg

% Enhancement in bioavailability, Carum carvi + Zingiber officinale, Extr. (Cc)	% Enhancement in bioavailability, Carum carvi + Zingiber officinale, Frac 1. (Cc)	% Enhancement in bioavailability, Carum carvi + piperine, Extr. (Cc)	% Enhancement in bioavailability, Carum carvi + piperine, Frac 1. (Cc)	% Enhancement in bioavailability, Carum carvi (Cc) Extr.	% Enhancement in bioavailability, BE from Zingiber officinale	% Enhancement in bioavailability, BE from Carum carvi	% Enhancement in bioavailability, Carum carvi + Piperine	% Enhancement in bioavailability, Carum carvi + Zingiber officinale	Compound
42%	50%	37%	44%	28%	15%	–	–	–	CC[C@H](C)[C@H](N)C(=O)O [Isoleucine]
–	–	–	–	–	Nil	Nil	nil	nil	CC[C@@H](CO)NCCN[C@@H](CC)CO [Ethambutol]
Nil	Nil	Nil	Nil	Nil	Nil	–	–	–	O=C1O[C@H]([C@@H](O)CO)C(O)=C1O [Vit C]
–	–	–	–	–	86%	Nil	98%	76%	CN1C(C(=O)Nc2ccccn2)=C(O)c2ccccc2S1(=O)=O [Piroxicam]
38%	41%	36%	45%	31%	33%	–	–	–	Silymarin
–	–	–	–	–	Nil	80%	79%	82%	C=CC1=C(C(=O)O)N2C(=O)[C@@H](NC(=O)/C(=N\OCC(=O)O)c3csc(N)n3)[C@H]2SC1 [Cefixime]
–	–	–	–	–	68%	67%	95%	85%	CC1=C(C(=O)O)N2C(=O)[C@@H](NC(=O)[C@H](N)c3ccc(O)cc3)[C@H]2SC1 [Cefadroxil]
–	–	–	–	–	68%	70%	100%	105%	CC[C@H]1OC(=O)[C@H](C)[C@@H](O[C@H]2C[C@@](C)(OC)[C@@H](O)[C@H](C)O2)[C@H](C)[C@@H](O[C@@H]2O[C@H](C)C[C@H](N(C)C)[C@H]2O)[C@](C)(O)C[C@@H](C)C(=O)[C@H](C)[C@@H](O)[C@]1(C)O [Erythromycin]
–	–	–	–	–	75%	90%	95%	114%	C=CC[C@@H]1/C=C(\C)C[C@H](C)C[C@H](OC)[C@H]2O[C@@](O)(C(=O)C(=O)N3CCCC[C@H]3C(=O)O[C@H](/C(C)=C/[C@@H]3CC[C@@H](O)[C@H](OC)C3)[C@H](C)[C@@H](O)CC1=O)[C@H](C)C[C@@H]2OC [Tacrolimus]
nil	nil	nil	nil	Nil	nil	–	–	–	Nc1nc2ncc(CNc3ccc(C(=O)N[C@@H](CCC(=O)O)C(=O)O)cc3)nc2c(=O)[nH]1 [Folio Acid]
–	–	–	–	–	78%	55%	90%	86%	CC[C@H]1OC(=O)[C@H](C)[C@@H](O[C@H]2C[C@@](C)(OC)[C@@H](O)[C@H](C)O2)[C@H](C)[C@@H](O[C@@H]2O[C@H](C)C[C@H](N(C)C)[C@H]2O)[C@](C)(O)C[C@@H](C)CN(C)[C@H](C)[C@@H](O)[C@]1(C)O [Azithromycin]

Compound	% Enhancement in bioavailability, Carum carvi + Zingiber officinale, Extr. (Cc)	% Enhancement in bioavailability, Carum carvi + Zingiber officinale, Frac 1. (Cc)	% Enhancement in bioavailability, Carum carvi + piperine, Extr. (Cc)	% Enhancement in bioavailability, Carum carvi + piperine, Frac 1. (Cc)	% Enhancement in bioavailability, Carum carvi (Cc) Extr.	% Enhancement in bioavailability, BE from Zingiber officinale	% Enhancement in bioavailability, BE from Carum carvi	% Enhancement in bioavailability, Carum carvi + Piperine	% Enhancement in bioavailability, Carum carvi + Zingiber officinale
Cc1onc(-c2ccccc2Cl)c1C(=O)N[C@@H]1C(=O)N2[C@@H]1SC(C)(C)[C@@H]2C(=O)O [Cloxacillin]	–	–	–	–	–	76%	110%	95%	110%
